Results on 3 compounds are retold here after patent publication US5126258A (priority 1988, dated 1992).

In series [1] the target is monoclonal antibody P3 6D4. The series can be described thus: Kinetics and inhibition of catalytic ester hydrolysis by monoclonal antibody P3 6D4, spectrophotometric at 245 nm. The format is biochemical, mouse. To be noted: for Ki: figure = Ki × 10^7, read-out: Ki. As for the experimental part: FIG. 4 illustrates a Lineweaver-Burk plot for the hydrolysis of Compound 7 by anti-Compound 4 monoclonal antibody from hybridoma P3 6D4. Velocities were determined spectrophotometrically by measuring initial rates during the first linear portion of the reaction as described with reference to Table 2. The substrate concentrations were corrected for amounts consumed during initial equilibration. ( ) No inhibitor present. ( ) Inhibited by 50 nM phosphonate (Compound 3). ( ) Inhibited by 100 nM phosphonate (Compound 3).
(§1) In particular, an exemplary monoclonal receptor was produced by the standard hybridoma technology of Kohler et al., Nature, 256, 495 (1975). Specifically, female 129G1X^+ mice were immunized by intraperitoneal injection with an inoculum of 100 micrograms of conjugate (e.g., Compound 4i bound to KLH) in 300 microliters of a 1:1 mixture of phosphate buffered saline (PBS) pH 7.4 and complete Freund's adjuvant. Two weeks later, the mice were again injected in a like manner with 50 micrograms of the foregoing conjugate in 300 microliters of a 1:1 mixture of PBS (pH 7.4) and 10 mg/ml alum. After an additional eight weeks, the mice were immunized intravenously with 50 micrograms of the conjugate in 200 microliters of PBS (pH 7.4). The spleens were removed from the mice 4 days later, and the spleen cells were fused to myeloma cells.
Reaction kinetics were measured spectrophotometrically by following the absorption change at 245 nanometers. […] Kinetic parameters obtained with these substrates are shown in Table 2 along with the inhibition constants obtained with phosphonate (Compound 3). Under these conditions, the acceleration above the background rate is about 960-fold for Compound 7 and about 200-fold for Compound 8 (corrected for the background hydrolysis rate).
*The kinetic parameters shown in Table 2 are for the hydrolysis of esters
(Compounds 7 and 8) by monoclonal antibody P3 6D4. A PerkinElmer lambda 4
spectrophotometer, equipped with thermostatted cell holder, was used to
measure absorption changes at 245 nm. Cells containing the substrate at
concentrations of 0.5 to 50 micromolar in phosphate buffer (50 mM, pH 8.0
were preequilibrated at 25 degrees C. The concentration of active IgG in
stock solution was found by reacting with the coumarin ester (Compound 5)
and measuring the yield of hydroxycoumarin by fluorescence. The kinetic
run was initiated by addition of an aliquot of the antibody stock solutio
(in 50 mM phosphate buffer, pH 8.0) calculated to give 100 nM IgG. The
mixture was allowed to equilibrate for 2 to 3 minutes and the rate was
then measured during the subsequent 10 minutes. The absorption change for
complete hydrolysis was determined by treatment with esterase. Kinetic
parameters were obtained from L ineweaverBurk plots (see FIG. 4).
Inhibition constants were determined from a plot of the slopes with at
least four inhibitor concentrations of Compound 3. The data were analyzed

Series [2] can be described thus: Metal chelate formation constants, potentiometric titration. The following applies: titrimetric analysis, estimated; read-out: formation constants of 1:1 chelates with divalent metal ions. The series is classed as physicochemical. The text has this: Such a possibility was investigated using a dipicolinic acid halide to derivatize the ortho aminomethyl group of a phenolic structure (see Compounds 3 and 4 of FIG. 2). The dealkylation of the phosphonyl and acyl esters of this adduct exposes the potential ligands for the formation of a metal chelate. The intrinsic stability of complexes of this ligand, however, determined with divalent transition metals such as cobalt, zinc and copper, are probably too low to expect these chelates to maintain their integrity in the immunization process. In fact, the formation constants of 1:1 chelates of Compound 3 with the divalent metal ions are in the range of 10^4 -10^5 M^-1 as estimated by titrimetric analysis.
Determination of pKa and stability constants K:
All determinations of pKa and stability constants (K) are performed according to the method of Martell. This method consisted of potentiometric titration of the particular compound (at a concentration of about 1.4 mM) in the absence of and in the presence of the metal ion being investigated. The ionic strength was maintained constant using 0.1M NaClO4 as a supporting electrolyte. All measurements were carried out under nitrogen at 25 degrees C plus or minus 0.01 degrees C.

The subject of series [3] is monoclonal antibody P3 6D4. Briefly: Ester hydrolysis by monoclonal antibody P3 6D4, HPLC. The series is classed as biochemical, mouse. As for the experimental part: FIG. 3 illustrates the rate of hydrolysis of a carboxylic ester (Compound 7) determined by HPLC under the conditions described in Table 1 (50 mM phosphate buffer at pH 8.0 and 23 degrees C). ( ) Uncatalyzed (background)rate of hydrolysis. (.quadrature.) Effect of 0.5 micromolar non-specific monoclonal IgG. ( ) 0.1 Micromolar anti-Compound 4 monoclonal antibody from hybridoma P3 6D4. The superimposed curve represents a theoretical exponential decay which fits the data points.
as §1
(§2) The lack of spectroscopic distinction between such esters and their hydrolysis products recommended a chromatographic analysis of the process. Referring to FIG. 3, a mixture of Compound 7 (5 uM) and the monoclonal antibody from hybridoma P3 6D4 (0.1 uM) in phosphate buffer (50 mM, pH 8.0) was analyzed over time by high performance liquid chromatography (HPLC). The accelerated hydrolysis of the ester was apparent from the decrease of its peak and the concurrent increase in two new peaks that correspond with the expected products. Under these conditions, the ester is completely consumed in 60-80 minutes during which time the background rate accounts for about 12 to 16 percent hydrolysis. The chromatographic profile is the same as that produced by treatment with hog liver esterase.
(§3) *Hydrolysis of carboxylic esters by monoclonal antibody (from hybridoma P
(§4) 6D4) and by hog liver esterase (Sigma Chemical Co., St. Louis, MO, EC
(§5) 3.1.1.1) determined by HPLC on an analytical RPC18 column (Vydac 218TP54)
(§6) with isocratic elution [acetonitrile: water plus 0.1 percent
(§7) trifluoroacetic acid; (35:65)] at a flow rate of 1.0 ml/min and the
(§8) detector set at 245 nm. The initial substrate concentration was 5
(§9) micromolar and that the internal standard (acetophenone) was 10 microm
(§10) olar in 50 mM phosphate buffer at pH 8.0. The retention times (minutes)
(§11) were as follows: acetophenone, 5.0; Compound 7, 8.3; Compound 8, 6.7;
(§12) Compound 9, 4.1; Compound 10, 11.1 (40 percent acetonitrile elution);
(§13) Compound 11, 8.2. The antibody concentration was 15 micrograms/ml (0.1
(§14) micromolar) and that of esterase was 5.5 micrograms/ml. The reaction
(§15) mixtures were kept at 25 degrees C. and aliquots were analyzed at
(§16) intervals of 2 to 20 minutes. Three or more determinations were used to
(§17) plot a curve from which the halflife of the reaction is estimated (see

Series [4] relates to monoclonal receptor P3 6D4. Briefly: Stoichiometric transacylation reaction of monoclonal receptor P3 6D4 with coumarin ester Compound 5 (fluorescence) and its inhibition/inactivation. The format is biochemical, mouse. In outline:
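Antibody P3 6D4 (100 nM final) reacted at 23 °C with coumarin ester 5 in Tris-HCl or phosphate buffer (50 mM, pH 4–9), followed by fluorescence (ex 355/em 455 nm). Initial rates corrected for spontaneous hydrolysis; kinetic parameters from hyperbolic and double-reciprocal fits, Ki from Lineweaver-Burk with ≥5 inhibitor concentrations.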

The next series deals with hog liver esterase. The series is classed as biochemical. To be noted: pig, 5 µM, pH 8. On the procedure: as §2, §3, §4, §5, §6, §7, §8, §9, §10, §11, §12, §13, §14, §15, §16, §17
The nature of another series: Solubility. The format is physicochemical. To be noted: 50 mm phosphate buffer, aqueous buffer; phosphate buffer 50 mM, pH 8.0; read-out: soluble up to concentration.
The conditions of series [5]: leaving group alcohol; source not stated; cited from earlier work.

The structures appear in SMILES notation. Read-outs that look alike come from different tables or passages of the source.

As to `CCOP(=O)(Cc1ccc(NC(=O)C(F)(F)F)cc1)Oc1ccc(NC(C)=O)cc1CNC(=O)c1cccc(C(=O)OC)n1` (centres unmarked) [Compound 3], the inhibition constant Ki in series [1] (inhibitor Compound 3, substrate Compound 7 (table line 7), pH 8.0) turned out to be 160 nM; in series [1] (inhibitor Compound 3, substrate Compound 8 (table line 8), pH 8.0), 65 nM. Besides, the Kd in series [2] was 10 to 100 µM.
Regarding `O=C(O)CCC(=O)Nc1ccc(OC(=O)Cc2ccc(NC(=O)C(F)(F)F)cc2)cc1` [Compound 8], the “t1/2 Antibody (P3 6D4)” value in series [3] (5 micromolar substrate, 0.1 micromolar antibody, 50 mM phosphate pH 8.0, 25 C) worked out at 60 min. Besides, in series [3] (pH 8.0), the “accelerated hydrolysis by P3 6D4 (substrate acceptance)” value is “somewhat slower rate”. For the same compound, the inactivation of receptor entry in series [4] was “loss of activity”. For the same compound, the “t1/2 Esterase” value in the series with hog liver esterase came out at 52 min. Moreover, the Km in series [1] (50 mM phosphate pH 8.0, 25 C, 100 nM IgG, figure = Km × 10^6) was 620 nM. In series [1] (50 mM phosphate pH 8.0, 25 C, 100 nM IgG, figure = Vmax × 10^9), the maximal velocity (Vmax) worked out at 0.06 µM/min. Further, the kcat in series [1] (50 mM phosphate pH 8.0, 25 C, printed figure = kcat × 10^2) is 0.008 s⁻¹. In series [1] (pH 8.0), the kcat/kuncat stood at 210. Also, in series [1] (pH 8.0, corrected for background hydrolysis rate), the “acceleration above the background rate” value is “about 200 fold”. In “Solubility”, the solubility was at least 100 µM.
Take `Oc1cccc2ccccc12` [alpha-naphthol]: the pKa entry in series [5] was “about 9.3”.

The term Ki denotes the dissociation constant of the complex between target and ligand, obtained from inhibition or displacement. As a reminder, the Km is the substrate concentration at which the rate is half of its maximum. What is called Vmax is the rate approached at saturating substrate. For orientation: kcat means the maximal rate divided by the concentration of active sites.
